{"source": "the supplement of paper PMC10307832", "experiment_in_all_cases": "relative viability (nuclei count vs DMSO), 5 days (fraction); higher = more cells survive", "key": {"201T": {"system": "201T", "how_it_was_run": "(§1)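 Lung cancer cell lines were seeded in 1536-well plates and dosed by pin tool the next day, with either a single drug or a fixed anchor-drug dose combined with five library-drug doses (not always all listed) spaced in √10 steps. Five days later, one step fixed the cells and stained their nuclei (final 0.05% Triton X-100, 1% formaldehyde, 1 ug/ml Hoechst), and nuclei were counted on 4× images. Relative viability is the nuclei count in treated wells divided by the count in vehicle wells, and each value is the median of duplicate plates.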"}, "ABC-1": {"system": "ABC-1", "how_it_was_run": "as §1"}, "BEN": {"system": "BEN", "how_it_was_run": "as §1"}, "CAL-12T": {"system": "CAL-12T", "how_it_was_run": "as §1"}, "COR-L 105": {"system": "COR-L 105", "how_it_was_run": "as §1"}, "EKVX": {"system": "EKVX", "how_it_was_run": "as §1"}, "HARA": {"system": "HARA", "how_it_was_run": "as §1"}, "HCC-366": {"system": "HCC-366", "how_it_was_run": "as §1"}, "LK-2": {"system": "LK-2", "how_it_was_run": "as §1"}, "LOU-NH91": {"system": "LOU-NH91", "how_it_was_run": "as §1"}, "NCI-H1437": {"system": "NCI-H1437", "how_it_was_run": "as §1"}, "NCI-H1650": {"system": "NCI-H1650", "how_it_was_run": "as §1"}, "NCI-H1666": {"system": "NCI-H1666", "how_it_was_run": "as §1"}, "NCI-H2009": {"system": "NCI-H2009", "how_it_was_run": "as §1"}, "NCI-H2170": {"system": "NCI-H2170", "how_it_was_run": "as §1"}, "NCI-H3122": {"system": "NCI-H3122", "how_it_was_run": "as §1"}, "NCI-H441": {"system": "NCI-H441", "how_it_was_run": "as §1"}, "NCI-H460": {"system": "NCI-H460", "how_it_was_run": "as §1"}, "NCI-H661": {"system": "NCI-H661", "how_it_was_run": "as §1"}, "NCI-H727": {"system": "NCI-H727", "how_it_was_run": "as §1"}, "PC-14": {"system": "PC-14", "how_it_was_run": "as §1"}}}
{"smiles": "COc1cc2nccc(Oc3ccc(NC(=O)Nc4cc(C)on4)c(Cl)c3)c2cc1OC", "note": "[Tivozanib] + C[C@@H](Oc1cc(-c2cnn(C3CCNCC3)c2)cnc1N)c1c(Cl)ccc(F)c1Cl [Crizotinib] (partner 1 µM)", "values": [{"measurement": "relative viability", "setting": "201T; first compound 0.005 µM", "result": 0.981}, {"measurement": "relative viability", "setting": "201T; first compound 0.01581 µM", "result": 1.04}, {"measurement": "relative viability", "setting": "201T; first compound 0.05 µM", "result": 1.06}, {"measurement": "relative viability", "setting": "201T; first compound 0.1581 µM", "result": 1}, {"measurement": "relative viability", "setting": "201T; first compound 0.5 µM", "result": 1.04}, {"measurement": "relative viability", "setting": "ABC-1; first compound 0.005 µM", "result": 1.09}, {"measurement": "relative viability", "setting": "ABC-1; first compound 0.01581 µM", "result": 1.12}, {"measurement": "relative viability", "setting": "ABC-1; first compound 0.05 µM", "result": 1.09}, {"measurement": "relative viability", "setting": "ABC-1; first compound 0.1581 µM", "result": 1.08}, {"measurement": "relative viability", "setting": "ABC-1; first compound 0.5 µM", "result": 0.874}, {"measurement": "relative viability", "setting": "BEN; first compound 0.005 µM", "result": 0.966}, {"measurement": "relative viability", "setting": "BEN; first compound 0.01581 µM", "result": 0.865}, {"measurement": "relative viability", "setting": "BEN; first compound 0.05 µM", "result": 0.647}, {"measurement": "relative viability", "setting": "BEN; first compound 0.5 µM", "result": 1.01}, {"measurement": "relative viability", "setting": "CAL-12T; first compound 0.005 µM", "result": 0.649}, {"measurement": "relative viability", "setting": "CAL-12T; first compound 0.01581 µM", "result": 0.552}, {"measurement": "relative viability", "setting": "CAL-12T; first compound 0.05 µM", "result": 0.568}, {"measurement": "relative viability", "setting": "CAL-12T; first compound 0.5 µM", "result": 0.614}, {"measurement": "relative viability", "setting": "COR-L 105; first compound 0.01581 µM", "result": 0.794}, {"measurement": "relative viability", "setting": "COR-L 105; first compound 0.05 µM", "result": 0.797}, {"measurement": "relative viability", "setting": "COR-L 105; first compound 0.1581 µM", "result": 0.775}, {"measurement": "relative viability", "setting": "COR-L 105; first compound 0.5 µM", "result": 0.701}, {"measurement": "relative viability", "setting": "EKVX; first compound 0.005 µM", "result": 0.995}, {"measurement": "relative viability", "setting": "EKVX; first compound 0.01581 µM", "result": 1.02}, {"measurement": "relative viability", "setting": "EKVX; first compound 0.05 µM", "result": 0.819}, {"measurement": "relative viability", "setting": "EKVX; first compound 0.1581 µM", "result": 1.06}, {"measurement": "relative viability", "setting": "EKVX; first compound 0.5 µM", "result": 1.22}, {"measurement": "relative viability", "setting": "HARA; first compound 0.005 µM", "result": 0.976}, {"measurement": "relative viability", "setting": "HARA; first compound 0.01581 µM", "result": 1}, {"measurement": "relative viability", "setting": "HARA; first compound 0.05 µM", "result": 1.21}, {"measurement": "relative viability", "setting": "HARA; first compound 0.1581 µM", "result": 1.09}, {"measurement": "relative viability", "setting": "HARA; first compound 0.5 µM", "result": 0.974}, {"measurement": "relative viability", "setting": "HCC-366; first compound 0.005 µM", "result": 0.515}, {"measurement": "relative viability", "setting": "HCC-366; first compound 0.01581 µM", "result": 0.59}, {"measurement": "relative viability", "setting": "HCC-366; first compound 0.05 µM", "result": 0.502}, {"measurement": "relative viability", "setting": "HCC-366; first compound 0.1581 µM", "result": 0.487}, {"measurement": "relative viability", "setting": "HCC-366; first compound 0.5 µM", "result": 0.372}, {"measurement": "relative viability", "setting": "LK-2; first compound 0.005 µM", "result": 0.253}, {"measurement": "relative viability", "setting": "LK-2; first compound 0.01581 µM", "result": 0.264}, {"measurement": "relative viability", "setting": "LK-2; first compound 0.05 µM", "result": 0.221}, {"measurement": "relative viability", "setting": "LK-2; first compound 0.1581 µM", "result": 0.198}, {"measurement": "relative viability", "setting": "LK-2; first compound 0.5 µM", "result": 0.22}, {"measurement": "relative viability", "setting": "LOU-NH91; first compound 0.005 µM", "result": 0.723}, {"measurement": "relative viability", "setting": "LOU-NH91; first compound 0.01581 µM", "result": 0.737}, {"measurement": "relative viability", "setting": "LOU-NH91; first compound 0.05 µM", "result": 0.77}, {"measurement": "relative viability", "setting": "LOU-NH91; first compound 0.1581 µM", "result": 0.774}, {"measurement": "relative viability", "setting": "LOU-NH91; first compound 0.5 µM", "result": 0.708}, {"measurement": "relative viability", "setting": "NCI-H1437; first compound 0.005 µM", "result": 0.899}, {"measurement": "relative viability", "setting": "NCI-H1437; first compound 0.01581 µM", "result": 0.932}, {"measurement": "relative viability", "setting": "NCI-H1437; first compound 0.05 µM", "result": 0.859}, {"measurement": "relative viability", "setting": "NCI-H1437; first compound 0.1581 µM", "result": 0.947}, {"measurement": "relative viability", "setting": "NCI-H1437; first compound 0.5 µM", "result": 0.824}, {"measurement": "relative viability", "setting": "NCI-H1650; first compound 0.005 µM", "result": 0.919}, {"measurement": "relative viability", "setting": "NCI-H1650; first compound 0.01581 µM", "result": 1.13}, {"measurement": "relative viability", "setting": "NCI-H1650; first compound 0.05 µM", "result": 0.952}, {"measurement": "relative viability", "setting": "NCI-H1650; first compound 0.1581 µM", "result": 1.09}, {"measurement": "relative viability", "setting": "NCI-H1650; first compound 0.5 µM", "result": 0.866}, {"measurement": "relative viability", "setting": "NCI-H1666; first compound 0.005 µM", "result": 0.963}, {"measurement": "relative viability", "setting": "NCI-H1666; first compound 0.01581 µM", "result": 0.905}, {"measurement": "relative viability", "setting": "NCI-H1666; first compound 0.05 µM", "result": 0.901}, {"measurement": "relative viability", "setting": "NCI-H1666; first compound 0.1581 µM", "result": 1.21}, {"measurement": "relative viability", "setting": "NCI-H1666; first compound 0.5 µM", "result": 0.853}, {"measurement": "relative viability", "setting": "NCI-H2009; first compound 0.005 µM", "result": 1.08}, {"measurement": "relative viability", "setting": "NCI-H2009; first compound 0.01581 µM", "result": 1.02}, {"measurement": "relative viability", "setting": "NCI-H2009; first compound 0.05 µM", "result": 1.1}, {"measurement": "relative viability", "setting": "NCI-H2009; first compound 0.1581 µM", "result": 1.03}, {"measurement": "relative viability", "setting": "NCI-H2009; first compound 0.5 µM", "result": 0.933}, {"measurement": "relative viability", "setting": "NCI-H2170; first compound 0.005 µM", "result": 1.11}, {"measurement": "relative viability", "setting": "NCI-H2170; first compound 0.01581 µM", "result": 1.21}, {"measurement": "relative viability", "setting": "NCI-H2170; first compound 0.05 µM", "result": 1.24}, {"measurement": "relative viability", "setting": "NCI-H2170; first compound 0.5 µM", "result": 1.17}, {"measurement": "relative viability", "setting": "NCI-H3122; first compound 0.005 µM", "result": 0.236}, {"measurement": "relative viability", "setting": "NCI-H3122; first compound 0.01581 µM", "result": 0.266}, {"measurement": "relative viability", "setting": "NCI-H3122; first compound 0.05 µM", "result": 0.266}, {"measurement": "relative viability", "setting": "NCI-H3122; first compound 0.1581 µM", "result": 0.29}, {"measurement": "relative viability", "setting": "NCI-H3122; first compound 0.5 µM", "result": 0.32}, {"measurement": "relative viability", "setting": "NCI-H441; first compound 0.005 µM", "result": 0.688}, {"measurement": "relative viability", "setting": "NCI-H441; first compound 0.01581 µM", "result": 0.676}, {"measurement": "relative viability", "setting": "NCI-H441; first compound 0.05 µM", "result": 0.607}, {"measurement": "relative viability", "setting": "NCI-H441; first compound 0.1581 µM", "result": 0.72}, {"measurement": "relative viability", "setting": "NCI-H441; first compound 0.5 µM", "result": 0.666}, {"measurement": "relative viability", "setting": "NCI-H460; first compound 0.005 µM", "result": 0.889}, {"measurement": "relative viability", "setting": "NCI-H460; first compound 0.01581 µM", "result": 1.09}, {"measurement": "relative viability", "setting": "NCI-H460; first compound 0.05 µM", "result": 0.96}, {"measurement": "relative viability", "setting": "NCI-H460; first compound 0.1581 µM", "result": 0.935}, {"measurement": "relative viability", "setting": "NCI-H460; first compound 0.5 µM", "result": 0.897}, {"measurement": "relative viability", "setting": "NCI-H661; first compound 0.005 µM", "result": 0.961}, {"measurement": "relative viability", "setting": "NCI-H661; first compound 0.01581 µM", "result": 0.951}, {"measurement": "relative viability", "setting": "NCI-H661; first compound 0.05 µM", "result": 1.03}, {"measurement": "relative viability", "setting": "NCI-H661; first compound 0.5 µM", "result": 0.947}, {"measurement": "relative viability", "setting": "NCI-H727; first compound 0.005 µM", "result": 0.72}, {"measurement": "relative viability", "setting": "NCI-H727; first compound 0.01581 µM", "result": 0.843}, {"measurement": "relative viability", "setting": "NCI-H727; first compound 0.05 µM", "result": 0.833}, {"measurement": "relative viability", "setting": "NCI-H727; first compound 0.5 µM", "result": 0.869}, {"measurement": "relative viability", "setting": "PC-14; first compound 0.005 µM", "result": 0.796}, {"measurement": "relative viability", "setting": "PC-14; first compound 0.01581 µM", "result": 0.879}, {"measurement": "relative viability", "setting": "PC-14; first compound 0.05 µM", "result": 0.961}, {"measurement": "relative viability", "setting": "PC-14; first compound 0.1581 µM", "result": 0.879}, {"measurement": "relative viability", "setting": "PC-14; first compound 0.5 µM", "result": 0.885}]}
